Results published in patent publication US20210346319A1, “Pharmaceutical Compositions of R-(+)-Propranolol in Enantiomeric Excess and Therapeutic Uses Related Thereto” (Emory University, priority 2018, published 2021).
Entries after “also recorded” stand apart in the source; their conditions may differ.

Tests used:
[1] = system: bEnd.3 tumors; experiment: RNAseq analysis of R-propranolol vs vehicle treated tumors; assay type: in vivo, mice
Description: In order to gain an understanding of the mechanism of action of R-propranolol in vivo, vehicle and R-propranolol treated tumors were subjected to RNA seq analysis. […] The APOA1 gene expresses a protein called apolipoprotein A-I (apoA-I). ApoA-I is a component of high-density lipoprotein (HDL) which transports cholesterol and phospholipids through the bloodstream for excretion by the liver beneficial for cardiovascular health.

[2] = system: VEGF; experiment: VEGF levels in infants receiving propranolol for hemangioma of infancy; assay type: in vivo, human; details: saliva of infants with hemangiomas, hydrochloride
Description: (§1) Genetic studies of hemangiomas have not elucidated a common genetic cause, as opposed to other vascular lesions, such as vascular malformations and angiosarcomas, in which genetic mutations have been found. Cytokines have been found in hemangiomas of infancy, including vascular endothelial growth factor (VEGF) and Angiopoietin-2 (Ang-2). The role of these factors in hemangiomas are not fully understood, especially given that Ang-2 can serve as a growth factor or mediate endothelial apoptosis depending on the context. A series of infants were studied who received propranolol for treatment of hemangioma of infancy.

[3] = system: Angiopoietin-2 (Ang-2); experiment: Ang-2 levels in infants receiving propranolol for hemangioma of infancy; assay type: in vivo, human; details: saliva of infants with hemangiomas
Description: as §1

[4] = system: Angptl4; experiment: Downregulation of VEGF/Angptl4 by propranolol and its isomers (summary statements); assay type: cell-based
[5] = system: hemangioma of infancy; details: infant who received propranolol for cardiac disease; cited from earlier work
[6] = system: Angptl4; experiment: Gene array of treated hemangioma stem cells (HemSC); assay type: cell-based, human; details: for Angptl4 gene regulation on gene array: HemSC cells vs vehicle control; for effectiveness in downregulating Angptl4 compared with S-propranolol: hemangioma stem cells
[7] = system: bEnd.3 hemangioma; experiment: bEnd.3 hemangioma xenograft growth in nude mice; assay type: in vivo; details: p=0.014
Method: The xenograft model was developed and approved by the Institutional Animal Care and Use Committee of Emory University. bEnd.3 cell suspension in growth medium was inoculated in the right flank of athymic Nu/Nu nude male mice purchased from the Charles River Laboratories at 2.5×10^5 cells/mouse (n=5 per group). Control or R-propranolol was administered intraperitoneally five times a week at 3.5 mg/kg/day. R-propranolol treatment was initiated on the second day after the tumor cell injection.
To elucidate the signaling cascade independent of beta blockade in hemangioma formation, tie-2-deficient mouse hemangioma cell line, bEnd.3 was xenografted and treated with or without R-propranolol, isomer deficient in beta blockade activity.

[8] = system: Angptl4; experiment: Western blot analysis of Angptl4 in HemSC cells
[9] = system: bEnd.3 hemangioma cells; experiment: Seahorse analysis of respiration in bEnd.3 cells; details: for basal respiration / spare respiratory capacity: FIG. 5B; for maximal respiration: compared to vehicle control
[10] = system: Angptl4; details: bEnd.3 cells, FIG. 1
[11] = RNAseq treated vs vehicle tumors

SMILES: CC(C)NCC(O)COc1cccc2ccccc12.Cl (racemic) [propranolol, (±)-1-[(1-methylethyl)amino]-3-(1-naphthalenyloxy)-2-propanol hydrochloride]
- N4RA1 (Nur77) expression [1, 11]: upregulated
- VEGF levels [2]: reduced
- VEGF levels ([2]; listed as Propranolol): downregulates
- Ang-2 levels [3]: not
- VEGF/Angplt4 downregulation [4]: coordinately downregulates
- hemangioma of infancy, clinical course [5]: regression

SMILES: CC(C)NC[C@@H](O)COc1cccc2ccccc12 [R-propranolol, (R)-(+)-1-(isopropylamino)-3-(naphthalen-1-yloxy)propan-2-ol]
- Angptl4 gene regulation on gene array [6]: downregulated; also recorded: most regulated gene
- effectiveness in downregulating Angptl4 compared with S-propranolol [6]: far more effective
- effectiveness in downregulating Angptl4 compared with S-propranolol ([6]; listed as R(+)-propranolol): More Effective
- tumor volume ([7]; 3.5 mg/kg/day intraperitoneally five times a week, control 593.32, n=5 per group): 37.60 mm3
- effect on bEnd.3 hemangioma tumor growth in vivo ([7]; xenograft in mice, within two weeks of tumor development): active in vivo; also recorded: significant tumor volume reduction; also recorded: significantly reduced the tumor volume; also recorded: inhibited the growth; also recorded: significant inhibition of tumor growth
- APOA1 expression [1, 11]: induced; also recorded: upregulated
- BHMT expression [1, 11]: most highly regulated gene; also recorded: upregulated; also recorded: most upregulated
- Egr-1 expression [1, 11]: elevated; also recorded: upregulated
- choline metabolism pathway (KEGG analysis) [1, 11]: the pathway affected; also recorded: highly affected
- Eno4 expression ([1]; RNAseq, FIG. 4): downregulated
- Faim2 expression ([1]; RNAseq, FIG. 4): downregulated
- Hunk expression ([1]; RNAseq, FIG. 4): downregulated
- number of RNA transcripts significantly downregulated ([1]; RNAseq, FIG. 4): Seven
- number of RNA transcripts upregulated ([1]; RNAseq, FIG. 4): seventeen
- activity against Angptl4 compared with S-propranolol ([4]; endothelial cells): greater downregulation; also recorded: more active
- Angptl4 expression, Western blot ([8]; FIG. 1): reduced expression of Angptl4
- Angptl4 expression, Western blot ([8]; FIG. 1, listed as R-isomer): suppressed Angptl4
- respiration compared with S-propranolol ([9]; FIG. 5A): stronger respiration
- basal respiration [9]: increased
- spare respiratory capacity [9]: increased
- maximal respiration ([9]; FIG. 5A): substantially increased
- Angptl4 protein expression [10]: markedly reduced

SMILES: CC(C)NCC(O)COc1cccc2ccccc12 (stereo not drawn) [S-propranolol, reference compound]
- Angptl4 gene regulation on gene array [6]: downregulated; also recorded: most regulated gene
- Angptl4 expression, Western blot ([8]; FIG. 1): not
- Angptl4 expression, Western blot ([8]; FIG. 1, listed as S isomer): had no effect
- basal respiration [9]: increased
- spare respiratory capacity [9]: increased
- maximal respiration ([9]; FIG. 5A): substantially increased
- Angptl4 protein expression [10]: slightly elevated

SMILES: CN(C)c1ccc(C(=C2C=CC(=[N+](C)C)C=C2)c2ccc(N(C)C)cc2)cc1 [gentian violet]
- Angptl4 gene regulation on gene array [6]: downregulated; also recorded: most regulated gene
- Angptl4 expression, Western blot ([8]; FIG. 1): suppressed Angptl4
- Angptl4 expression, Western blot ([8]; FIG. 1, listed as Gentian violet): downregulated Angptl4
- Angptl4 protein expression [10]: much reduced
